Laboratory results published in ChEMBL document CHEMBL3763120, “Phenyl Benzenesulfonylhydrazides Exhibit Selective Indoleamine 2,3-Dioxygenase Inhibition with Potent in Vivo Pharmacodynamic Activity and Antitumor Efficacy” (J Med Chem, 2016).
Active and inactive are the calls of the source. The calls are words filed in the database; no cut-off is given here.

Columns and labels:
[1] = molecular target: T1, Indoleamine 2,3-dioxygenase 1 (Homo sapiens, UniProt P14902); assay: Inhibition of human Indoleamine 2,3-dioxygenase using L-tryptophan as substrate by emission fluorescence analysis
[2] = molecular target: T1, Indoleamine 2,3-dioxygenase 1; assay: Inhibition of Indoleamine 2,3-dioxygenase in human HeLa cells in presence of L-tryptophan as substrate after 24 hrs in presence of L-tryptophan; format: cell-based
[3] = AUC (0 to infinity) in Sprague-Dawley rat plasma at 2 mg/kg, iv by LC-MS/MS analysis; format: ADME, organism-based; parameters: dose 2 mg/kg, route intravenous, time infinity
[4] = Half life in Sprague-Dawley rat plasma at 10 mg/kg, po by LC-MS/MS analysis; format: ADME, organism-based
[5] = Oral bioavailability in Sprague-Dawley rat plasma at 10 mg/kg by LC-MS/MS analysis; format: ADME, organism-based
[6] = Cmax in Sprague-Dawley rat plasma at 10 mg/kg, po by LC-MS/MS analysis; format: ADME, organism-based; parameters: dose 10 mg/kg, route oral
[7] = (§1) Half life in Sprague-Dawley rat plasma at 2 mg/kg, iv by LC-MS/MS analysis; format: ADME, organism-based; details: Sprague-Dawley, plasma
[8] = AUC (0 to infinity) in Sprague-Dawley rat plasma at 10 mg/kg, po by LC-MS/MS analysis; format: ADME, organism-based; parameters: dose 10 mg/kg, route oral, time infinity
[9] = Tmax in Sprague-Dawley rat plasma at 10 mg/kg, po by LC-MS/MS analysis; format: ADME, organism-based
[10] = Clearance in Sprague-Dawley rat plasma at 2 mg/kg, iv by LC-MS/MS analysis; format: ADME, organism-based
[11] = (§2) Volume of distribution at steady state in Sprague-Dawley rat plasma at 2 mg/kg, iv by LC-MS/MS analysis; format: ADME, organism-based; details: Sprague-Dawley, plasma, read-out: Vdss
Rattus norvegicus [12] = assay: as §1; format: ADME, organism-based; details: in vivo
Rattus norvegicus [13] = assay: as §2; format: ADME, organism-based; details: in vivo
[14] = Drug degradation in Sprague-Dawley rat plasma within 5 mins; format: ADME, cell-free; details: read-out: Drug degradation
B16-F10 = assay: Antitumor activity against mouse B16F10 cells xenografted in mouse at 400 mg/kg bid dosed daily for 2 weeks; format: functional, organism-based

T1 sequence (P14902 whole entry): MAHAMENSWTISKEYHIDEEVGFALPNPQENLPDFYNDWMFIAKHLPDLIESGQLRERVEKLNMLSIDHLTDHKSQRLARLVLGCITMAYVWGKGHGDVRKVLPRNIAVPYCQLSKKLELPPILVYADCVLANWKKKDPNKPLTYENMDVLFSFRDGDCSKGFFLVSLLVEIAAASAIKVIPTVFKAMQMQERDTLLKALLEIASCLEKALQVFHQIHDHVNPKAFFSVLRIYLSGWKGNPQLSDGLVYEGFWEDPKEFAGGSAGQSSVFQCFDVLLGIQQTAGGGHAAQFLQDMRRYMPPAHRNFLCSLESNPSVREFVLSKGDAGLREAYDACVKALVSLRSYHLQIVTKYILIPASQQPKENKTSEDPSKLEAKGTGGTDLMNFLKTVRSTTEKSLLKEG

IC50 [1]	EC50 [2]	AUC(0-inf) [3]	half-life [4]	bioavailability [5]	Cmax [6]	AUC(0-inf) [8]	Tmax [9]	Compound	other results
85 nM	211 nM	–	–	–	–	–	–	O=c1ccc2cc(S(=O)(=O)NNc3ccc(Br)cc3)ccc2[nH]1	–
75.8 nM	365 nM	–	–	–	–	–	–	CN1C(=O)Cc2cc(S(=O)(=O)NNc3ccc(Br)cc3)ccc21	–
68.1 nM	89.6 nM	5580 ng·h/mL	1.7 h	35%	2050 ng/mL	9730 ng·h/mL	4 h	O=C1CCCN1c1ccc(S(=O)(=O)NNc2ccc(Br)cc2)cc1	half-life [7]: 1.5 h; clearance [10]: 6.3 mL/min/kg; Vd [11]: 1 L/kg
> 10000 nM	–	–	–	–	–	–	–	O=C1Nc2ccc(S(=O)(=O)NNc3ccc(Br)cc3)cc2C1=O	–
47 nM	135 nM	–	–	–	–	–	–	Cn1c(=O)n(C)c2cc(S(=O)(=O)NNc3ccc(Br)cc3)ccc21	–
52.3 nM	30.6 nM	–	–	–	–	–	–	O=C1Nc2ccc(S(=O)(=O)NNc3ccc(Br)cc3)cc2C1(F)F	–
69.9 nM	36.4 nM	364 ng·h/mL	4.7 h	17%	72 ng/mL	304 ng·h/mL	1.3 h	CC1(C)C(=O)Nc2ccc(S(=O)(=O)NNc3ccc(Br)cc3)cc21	half-life [7]: 2.4 h; clearance [10]: 93.3 mL/min/kg; Vd [11]: 13 L/kg
112 nM	195 nM	–	–	–	–	–	–	O=C1CCCc2cc(S(=O)(=O)NNc3ccc(Br)cc3)ccc2N1	–
–	–	1740 ng·h/mL	2.7 h	37%	1190 ng/mL	3220 ng·h/mL	0.7 h	CC(=O)Nc1ccc(S(=O)(=O)NNc2ccc(Br)cc2)cc1	half-life [7]: 3.5 h; clearance [10]: 19.6 mL/min/kg; Activity (B16-F10): inactive; Vd [11]: 1.5 L/kg

The remaining lines, values behind:

Compound	IC50 [1]	EC50 [2]	AUC(0-inf) [3]	half-life [4]	bioavailability [5]	Cmax [6]	AUC(0-inf) [8]	Tmax [9]	other results
CC(=O)N1CCc2cc(S(=O)(=O)NNc3ccc(Br)cc3)ccc21	34.6 nM	231 nM	–	–	–	–	–	–	–
O=C1CCc2cc(S(=O)(=O)NNc3ccc(Br)cc3)ccc2N1	72.7 nM	67 nM	1350 ng·h/mL	8.9 h	11%	63 ng/mL	763 ng·h/mL	5.3 h	t1/2 (Rattus norvegicus [12]): 2.7 h; Vdss (Rattus norvegicus [13]): 20.8 L/kg
Nc1nc2cc(S(=O)(=O)NNc3ccc(Br)cc3)ccc2[nH]1	122 nM	68.4 nM	–	–	–	–	–	–	–
O=C(CCN1CCOCC1)Nc1ccc(S(=O)(=O)NNc2ccc(Br)cc2)cc1	77 nM	217 nM	–	–	–	–	–	–	–
O=C(O)c1cccc(S(=O)(=O)NNc2ccc(Br)cc2)c1	–	–	–	–	–	–	–	–	metabolised at 5 min [14]: 80%
O=S(=O)(NNc1ccc(Br)cc1)c1ccc2[nH]c(O)nc2c1	57.3 nM	63.1 nM	594 ng·h/mL	3 h	13%	124 ng/mL	382 ng·h/mL	1.3 h	half-life [7]: 0.8 h; clearance [10]: 57.1 mL/min/kg; Vd [11]: 6 L/kg
